Consider three compounds from patent US8128913B1, “Sunscreen composition with enhanced UV-A absorber stability and methods” (Skinvisible Pharmaceuticals, Inc., priority 2007, dated 2012).

Data set [1] in a line: photostability of sunscreen film on polyethylene under UV light at 365 nm, extraction and C18 chromatography. It counts as physicochemical. The note with it: Example 1 composition (no tricontanyl polymer), between 4 and 8 hours of UV exposure, 2340 Watts/m^2. The procedure: To test the photostability of the sunscreen composition, 200-250 μl of the sunscreen composition was spread evenly over a 25 cm^2 piece of polyethylene film. The amount of sunscreen preparation was determined by weight, and the polyethylene film was dried for 1 hour at 35° C. After drying the film was exposed to […] (2340 Watts/m^2) of UV light at 365 nm for 0, 2, 4, 6 and 8 hours. Following light exposure, sunscreen was extracted with ethanol containing 1% acetic acid. Extracts were separated and quantitated with a C18 column with a methanol:water linear gradient.
The composition contains 3 wt. % avobenzone, 6 wt. % octocrylene, and 4 wt. % oxybenzophenone as sunscreen agents. Photo stability test of the composition was carried out as described in Example 1.

The conditions of data set [2]: in vivo; cited from earlier work.

`COc1ccc(C(=O)CC(=O)c2ccc(C(C)(C)C)cc2)cc1` [avobenzone]: the “loss of sunscreen agent with UV exposure” value in data set [1] was about 50%.

As to “Poly(vinylpyrrolidone/1-hexadecene) [PVPH]”, the dermal toxicity entry in data set [2] was “no demonstrable dermal toxicity”.

For the compound Poly(vinylpyrrolidone/eicosene) [PVPE], the dermal toxicity result in data set [2] is “no demonstrable dermal toxicity”.
